Values joined by “and” are separate entries in the source; they are usually repeats but may differ in a detail not shown here. Equal entries are not always repeated.
Tests used:
[1] = test system: human constitutive 20S proteasome; assay: Proteasome activity in purified protein assay (fluorogenic AMC peptide substrates); assay type: biochemical
Experimental: The proteolytic activity of the 20S proteasome can be monitored in vitro by measuring the cleavage of fluorogenic peptide substrates for the different catalytic sites as an increase in 7-amino-4-methylcoumarin (AMC) fluorescence over time, as previously reported. Purified human 20S proteasome was pre-treated with a concentration range of TCH-165 or DMSO (vehicle control) for 15 min at 37 °C, on a black flat/clear bottom 96-well plate containing 1 nM of human constitutive 20S proteasome in 50 mM Tris-HCl pH 7.5. Fluorogenic substrates, Suc-LLVY-AMC (CT-L activity, 10 μM), Z-LLE-AMC (Casp-L activity, 10 μM), Boc-LRR-AMC (Tryp-L activity, 20 μM), were then added and the enzymatic activity measured at 37 °C on a SpectraMax M5e spectrometer by measuring an increase in the fluorescence unit per minute for 1 h at 380–460 nm. The release of AMC was monitored as fluorescence over time for 1 h and the resulting 20S activity changes were determined by comparing to the untreated 20S and calculating the fold-increase in activity over vehicle control for each analog at a given concentration.

MYC = MYC degradation in MM cells, Western blot; assay type: cell-based, human; conditions: RPMI-8226 cells
Experimental: Western blot: RPMI-8226 cells were grown to approximately 80% confluency in a T-75 flask. Cells were treated with either vehicle (DMSO) or TCH-165 at the indicated concentrations, for 4 h. In experiments involving bortezomib, cells were pre-treated with bortezomib (5 μM) for 1 h before adding TCH-165 or vehicle for a further 4 h. Cells were pelleted and washed with chilled PBS buffer (2X) and resuspended in chilled RIPA buffer supplemented with protease inhibitor cocktail (Sigma Aldrich; Burlington, MA, USA). Total protein was quantified by bicinchoninic acid assay (BCA assay, Thermofisher Scientific; Waltham, MA, USA), normalized to 2 mg/mL and boiled with 5X SDS loading buffer. Lysates (30 μg) were resolved on a 4–20% Tris/glycine gel and transferred to a PVDF membrane. The membrane was probed with anti MYC (Cell Signaling; cat#5605; Danvers, MA, USA) and anti-GAPDH-HRP (Santa Cruz; sc-47724 HRP; Dallas TX, USA) antibodies.

c-MYC = c-MYC degradation ELISA in H929 cells; assay type: cell-based, human; conditions: various concentrations, 4 h
Experimental: ELISA: c-MYC degradation in L363 and H929 cells. L363 cells were grown in T-25 flasks in RPMI-1640 medium supplemented with 15% heat-inactivated fetal bovine serum (FBS) and 1% penicillin/streptomycin at 37 °C and 5% CO2. H929 cells were grown in T-25 flasks in RPMI-1640 medium supplemented with 10% FBS, 0.05 mM 2-mercaptoethanol, and 1% penicillin/streptomycin. Cells were treated with DMSO, TCH-165, or bortezomib (BTZ) at the indicated concentrations for 4 h (0.1% final DMSO concentration). Following the 4-hour treatment, cells were pelleted, washed with chilled PBS buffer, and resuspended in chilled lysis buffer (10 mM Tris, 100 mM NaCl, 1 mM EDTA, 1 mM EGTA, 1 mM NaF, 20 mM Na4P2O7, 2 mM Na3VO4, 1% Triton X-100, 10% glycerol, 0.1% SDS, and 0.5% deoxycholate; pH 7.4) supplemented with Complete Mini Protease Inhibitor Cocktail (Sigma Aldrich). The lysate was clarified by centrifugation at 5000 rpm (4 °C) for 15 min. Total protein of the lysate was quantified by bicinchoninic acid assay (BCA assay, Thermofisher Scientific; Waltham, MA, USA). and normalized to 1.5 mg/mL total protein. The supplied protocol for the human c-MYC (Total) ELISA Kit (Invitrogen; Waltham, MA, USA) was used to determine the total c-MYC concentration of the lysates. Prior to loading lysate into ELISA plate wells, lysate (5 µL) was diluted into 45 µL of supplied standard diluent buffer.

[2] = test system: human constitutive 20S proteasome; parameters: method as in PMID 29897236; conditions: i.e., 1000%; cited from earlier work
26S proteasome = test system: 26S proteasome; parameters: method as in PMID 29897236; conditions: cited from earlier work
[3] = test system: RPMI-8226 subcutaneous xenograft; assay: RPMI-8226 xenograft tumor model

CCOC(=O)[C@]1(c2ccccc2)N=C(c2ccc(OC)cc2)N(Cc2ccccc2)[C@@H]1c1ccc(NCc2ccccc2)cc1 [TCH-165]
EC200 (concentration at which TCH-165 doubles 20S activity) ([1]; CT-L site (b-5), substrate Suc-LLVY-AMC): 1.5 µM
Fold^M (maximum fold enhancement of 20S activity) ([1]; CT-L site, Suc-LLVY-AMC): 810%
Fold^M (maximum fold enhancement of 20S activity) ([1]; Casp-L site, Z-LLE-AMC): 1290%
Fold^M (maximum fold enhancement of 20S activity) ([1]; Tryp-L site, Boc-LRR-AMC): 500%
efficacy of TCH-165 on MYC protein levels with proteasome blocked (MYC; TCH-165 5 μM with BTZ 5 μM): nearly completely abrogated
MYC protein levels compared to vehicle control (MYC; TCH-165 5 μM, 4 h): reduced MYC protein levels
MYC clearance (percent MYC remaining) (c-MYC): induced clearance of MYC
enhancement of 20S-mediated proteolysis [2]: ~10 fold
26S proteasome activity (26S proteasome): not affected
concentrations at which structured proteins targeted by the 26S-ubiquitin-dependent proteasome system were not affected (26S proteasome): < 30 µM
concentration at which disassembly of the 26S proteasome inhibited 26S-mediated degradation of ubiquitinylated substrates (26S proteasome; various cell lines, including RPMI-8226): > 30 µM
reduction of tumor growth compared to vehicle control ([3]; 100 mg/kg bid oral gavage, after 42 days, p < 0.05): 75.71% and 76%
loss of body weight ([3]; SCID mice, 100 mg/kg bid oral): < 10%
average tumor volume ([3]; after 42 days, TCH-165 100 mg/kg bid oral, bortezomib 0.375 reduced to 0.09 mg/kg i.v. 3X per week): 304.43 (±49.50) mm^3
